Assay results: article PMC12040169 (PLOS Biology, 2025)

Assay: in vitro
Conditions: human, hela cells, % viability

| Structure (SMILES) | viability at 28.5 h, 10 µM [%] |
| --- | --- |
| N=C(N)NCCc1c[nH]c2ccccc12 [CBK024011G] | 107 |
| O[C@H]1[C@H](NCC2CC2)[C@H]2CO[C@H](O2)[C@@H]1N1CCOCC1 [CBK288819] | 86.4 |
| CCc1nc2ccccc2n1CC(=O)N(Cc1cccnc1)C1CC1 [CBK304064] | 107 |
| c1coc(-c2ccc(Nc3ccc4c(c3)OCCO4)nc2)c1 [CBK037765] | 96.9 |
| COc1ccc2oc(-c3ccc(NC(=O)c4cccc5ccccc45)cc3)nc2c1 [CBK267610] | 110 |
| Cc1ccc(-c2ccccc2CC2(C(=O)O)CCN(Cc3ccccc3F)CC2)c(C)c1 [CBK286418] | 96.7 |
| Cc1ccc(NC(=O)N(Cc2ccc3ccccc3c2)CC2CCNCC2)cc1[N+](=O)[O-] [CBK049771] | 100 |
| CC(CC(=O)O)n1nnc2ccccc21 (centres unmarked) [CBK264139] | 113 |
| Nc1ccc(/C=C/c2cccc(C(=O)O)n2)cc1 [CBK267711] | 89.7 |
| Cc1ccc(Cl)c(N2CCN(CCCn3c(=S)[nH]c4ccccc4c3=O)CC2)c1 [CBK268011] | 90 |
| CCC(NC(=O)c1cc(CC(C)C)nn1CC)c1cn2cccnc2n1 (centres unmarked) [CBK307505] | 101 |
| CCc1nn2c(=O)cc(CNc3ccccc3CN(C)C(C)=O)nc2s1 [CBK305604] | 114 |
| Cc1ccc(N(CC(=O)Nc2cccc3cccnc23)S(=O)(=O)c2ccc(C)cc2)cc1 [CBK262201] | 104 |
| Cc1[nH]c(=O)[nH]c(=O)c1CCC(=O)N(C)CC(=O)Nc1cccc(F)c1 [CBK305703] | 99.6 |
| Cc1sc2[nH]c(CCC(=O)N3CCCC(C)CC3)nc(=O)c2c1C (centres unmarked) [CBK305807] | 103 |
| CCOC(=O)C1CCCN(S(=O)(=O)c2cc(C)c(Cl)cc2C)C1 (centres unmarked) [CBK044846] | 108 |
| N#Cc1ccc(CN2CCCN(S(=O)(=O)c3ccc(C(F)(F)F)cc3Cl)CC2)cc1 [CBK062939] | 98 |
| O=C(CC1SC(N2CCOCC2)=NC1=O)Nc1cccc(C(=O)O)c1 (centres unmarked) [CBK300498] | 101 |
| COc1nccc(N2CCN(C(=O)C3CC3)CC(O)C2)c1C#N (centres unmarked) [CBK306613] | 79.1 |
| O=[N+]([O-])c1cccc(S(=O)(=O)NCCCn2ccnc2)c1 [CBK266676] | 91.1 |
| Cn1c(CN2CCOCC2)nnc1SCC(=O)Nc1cccc(F)c1 [CBK269629] | 80.2 |
| C=CCNC(=O)N[C@H]1[C@H](O)[C@@H](N2CCN(c3ccccc3OC)CC2)[C@@H]2OC[C@H]1O2 [CBK288818] | 89.7 |

| Structure (SMILES) | viability at 28.5 h, 10 µM [%] |
| --- | --- |
| CCCn1c(SCC(=O)N2CCc3ccccc32)nc(O)cc1=O [CBK305843] | 95.4 |
| CCOc1ccc(Oc2nc(N(C)C)nc(N3CCOCC3)n2)nn1 [CBK269585] | 104 |
| Cc1nn(C)cc1CN1CCCC1c1nc(N(C)C)ncc1-c1cccc(Cl)c1 (centres unmarked) [CBK286501] | 86 |
| N#Cc1ccccc1N1C(=O)c2cccc([N+](=O)[O-])c2C1=O [CBK115322] | 94.1 |
| CCCNC(=O)N1CCCC(Cc2ccc(F)cc2F)(C(=O)OCC)C1 (centres unmarked) [CBK307031] | 94.2 |
| COc1ccc(Sc2nc3ccccc3nc2C(F)(F)F)cc1OC [CBK093779] | 85 |
| O=C(Oc1cccc2cccnc12)c1cccc(S(=O)(=O)Oc2cccc3cccnc23)c1 [CBK264545] | 58.4 |
| Cc1nc(CC(=O)N2[C@H]3CCCCCN(C)[C@@]3(C)C[C@H]2c2ccccc2)cs1 [CBK286104] | 109 |
| O=C(Cn1cnnn1)N1CCc2ccccc2C1 [CBK200335] | 101 |
| Cc1nn2c(c1-c1ccccc1)NC(=O)CC2C(=O)O (centres unmarked) [CBK287118] | 95.3 |
| COc1cccc(C(=O)NCC(C)(C)SCc2ccc(F)cc2)c1 [CBK022322] | 111 |
| COc1cc(CNc2cc(-c3ccccc3N(C)C)ncn2)cc(OC)c1OC [CBK037123] | 93.1 |
| COCCCn1c(=O)[nH]c2ncc(-c3ccc(O)cc3)nc21 [CBK064425] | 93.6 |
| CCn1nc(-c2ccc(C)o2)nc1CC1NC(=O)c2ccccc21 (centres unmarked) [CBK306834] | 87 |
| COc1cccc(CN(Cc2ccco2)Cc2[nH]cnc2C)c1 [CBK282495] | 81.4 |
| CC[C@H]1CN(C(=O)N2CCOCC2)CC[C@H]1CC(=O)NCCOC [CBK289134] | 100 |
| Cc1ccc2c(c1)C(=O)NCC1(CCN(C(=O)c3ccco3)CC1)O2 [CBK282894] | 100 |
| COc1ccc(S(=O)(=O)NC(C)C(=O)Nc2cc(Cl)ccc2OC)cc1 (centres unmarked) [CBK269479] | 104 |
| CCOc1ccc(NC(=O)C2CC=CCC2C(=O)O)cc1 (centres unmarked) [CBK274682] | 110 |
| Oc1ccc(SCCCCCN2CCCCC2)cc1 [CBK261488] | 92.3 |
| CC(=O)N1CCC[C@H]2NC(=O)CNC(=O)C3(C/C=C/C[C@H]21)CCN(CC1CCC1)CC3 [CBK292129] | 103 |
| Cc1nn(Cc2cccc(C(=O)Nc3ccc(S(=O)(=O)N4CCCCC4)cc3)c2)c(C)c1Cl [CBK265815] | 81.9 |
